Data from ChEMBL document CHEMBL5523718, “Design, synthesis, molecular modeling, in vitro and in vivo biological evaluation of potent anthranilamide derivatives as dual P-glycoprotein and CYP3A4 inhibitors” (Eur J Med Chem, 2024).
≈ marks a conversion by molar mass, not a printed value. Where “and” joins values, the source holds several entries; their conditions need not be identical. Equal entries are not always repeated.

Experiments:
MES-SA/Dx5 = assay: Cytotoxicity against human MES-SA/Dx5 cells at 1.28 uM incubated for 3 days by MTT assay relative to control; format: functional; conditions: time 3 day
Cytochrome P450 3A4 [1] = molecular target: T1, Cytochrome P450 3A4 (Homo sapiens, UniProt P08684); assay: Inhibition of CYP3A4 in human liver using luciferin-IPA as substrate microsome preincubated with compound for 10 mins followed by NADPH addition and measured after 5 mins; format: ADME, microsomes
T1 sequence (P08684 whole entry): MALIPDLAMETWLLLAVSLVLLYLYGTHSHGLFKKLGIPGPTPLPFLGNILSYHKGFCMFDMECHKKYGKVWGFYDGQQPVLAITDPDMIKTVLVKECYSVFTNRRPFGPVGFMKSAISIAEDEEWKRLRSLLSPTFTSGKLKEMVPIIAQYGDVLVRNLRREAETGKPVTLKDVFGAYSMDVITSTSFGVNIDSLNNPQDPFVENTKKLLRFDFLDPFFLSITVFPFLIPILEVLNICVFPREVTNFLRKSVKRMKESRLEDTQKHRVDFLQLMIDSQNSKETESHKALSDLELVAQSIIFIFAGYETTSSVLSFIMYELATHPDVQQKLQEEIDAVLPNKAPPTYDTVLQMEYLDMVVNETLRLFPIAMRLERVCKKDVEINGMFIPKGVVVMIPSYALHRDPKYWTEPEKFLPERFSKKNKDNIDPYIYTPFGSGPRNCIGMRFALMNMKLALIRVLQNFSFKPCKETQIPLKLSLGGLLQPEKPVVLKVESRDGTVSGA

[2] = molecular target: ATP-dependent translocase ABCB1 (Homo sapiens, UniProt P08183); assay: Inhibition of P-gp in human MES-SA/Dx5 cells; format: cell-based
Chain of ATP-dependent translocase ABCB1 (P08183 whole entry): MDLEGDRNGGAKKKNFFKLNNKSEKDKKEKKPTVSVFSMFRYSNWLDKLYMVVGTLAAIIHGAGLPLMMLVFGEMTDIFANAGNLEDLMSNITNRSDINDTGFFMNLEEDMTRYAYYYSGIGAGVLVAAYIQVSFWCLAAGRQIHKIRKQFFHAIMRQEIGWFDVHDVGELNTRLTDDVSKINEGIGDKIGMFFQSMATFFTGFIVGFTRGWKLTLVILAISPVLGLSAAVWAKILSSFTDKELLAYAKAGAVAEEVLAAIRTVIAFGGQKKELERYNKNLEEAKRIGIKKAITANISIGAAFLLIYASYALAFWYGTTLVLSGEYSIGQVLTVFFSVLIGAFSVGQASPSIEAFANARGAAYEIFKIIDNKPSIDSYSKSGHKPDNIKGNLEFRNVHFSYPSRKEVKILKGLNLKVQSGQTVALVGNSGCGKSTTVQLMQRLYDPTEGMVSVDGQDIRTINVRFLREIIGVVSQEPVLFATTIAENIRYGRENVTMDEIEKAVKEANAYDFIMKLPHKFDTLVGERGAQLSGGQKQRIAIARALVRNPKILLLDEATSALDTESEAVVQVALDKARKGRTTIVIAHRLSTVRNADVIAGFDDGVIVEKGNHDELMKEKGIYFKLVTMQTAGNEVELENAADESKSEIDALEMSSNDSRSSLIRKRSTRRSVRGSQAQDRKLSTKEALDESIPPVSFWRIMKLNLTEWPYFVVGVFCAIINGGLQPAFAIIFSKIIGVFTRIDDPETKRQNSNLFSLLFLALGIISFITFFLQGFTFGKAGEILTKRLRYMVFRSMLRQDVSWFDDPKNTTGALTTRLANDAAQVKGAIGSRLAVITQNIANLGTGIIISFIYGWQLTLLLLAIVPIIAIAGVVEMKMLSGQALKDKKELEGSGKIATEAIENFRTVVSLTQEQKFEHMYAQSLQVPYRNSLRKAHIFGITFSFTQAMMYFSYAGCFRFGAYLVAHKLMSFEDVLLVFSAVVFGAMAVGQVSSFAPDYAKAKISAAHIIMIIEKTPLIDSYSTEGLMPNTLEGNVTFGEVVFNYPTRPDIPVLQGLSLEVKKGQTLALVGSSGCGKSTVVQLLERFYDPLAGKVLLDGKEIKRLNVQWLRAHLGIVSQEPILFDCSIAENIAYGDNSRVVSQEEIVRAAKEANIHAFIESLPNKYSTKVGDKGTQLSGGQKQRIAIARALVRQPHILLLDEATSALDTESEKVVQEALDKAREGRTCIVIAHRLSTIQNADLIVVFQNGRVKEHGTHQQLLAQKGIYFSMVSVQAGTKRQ

Cytochrome P450 3A4 [3] = molecular target: T1, Cytochrome P450 3A4; assay: Inhibition of CYP3A4 in human Hepatocyte using Luciferin-IPA as substrate; format: ADME, cell-based
[4] = Apparent permeability across apical to basolateral side in human Caco-2 cells assessed as drug recovery; format: ADME, cell-based; conditions: read-out: Drug recovery
[5] = Equilibrium solubility of compound in PBS at pH 7.4; format: physicochemical; conditions: for solubility: buffer
[6] = Apparent permeability of compound across apical to basolateral side in human Caco-2 cells; format: ADME, cell-based
[7] = Apparent permeability across basolateral to apical side in human Caco-2 cells assessed as drug recovery; format: ADME, cell-based; conditions: read-out: Drug recovery
[8] = Apparent permeability of compound across basolateral to apical side in human Caco-2 cells; format: ADME, cell-based
[9] = Efflux ratio of apparent permeability across basolateral to apical side over apical to basolateral side in human Caco-2 cells; format: ADME, cell-based

| Structure (SMILES) | Activity (MES-SA/Dx5) [%] | IC50 (Cytochrome P450 3A4 [1]) | EC50 [2] | IC50 (Cytochrome P450 3A4 [3]) | recovery [4] [%] | solubility [5] | Papp A→B [6] [×10⁻⁶ cm/s] | recovery [7] [%] | Papp B→A [8] [×10⁻⁶ cm/s] | efflux ratio [9] | solubility thermodynamic ([5]; PBS) [µM] | Papp [8] | Ratio [9] |
| --- | --- | --- | --- | --- | --- | --- | --- | --- | --- | --- | --- | --- | --- |
| COc1ccc(CN2CCN(c3ccc(NC(=O)c4cc(OC)c(OC)cc4NC(=O)c4cnc5ccccc5c4)cc3)CC2)cc1OC | 1 | > 9000 nM | 29 nM | – | – | – | – | – | – | – | – | – | – |
| COc1cc(NC(=O)c2cc(=O)c3ccccc3o2)c(C(=O)Nc2ccc(N3CCN(Cc4cccc(-n5ccnc5)c4)CC3)cc2)cc1OC | 0 | 162 nM | 39 nM | 2400 nM | – | – | – | – | – | – | – | – | – |
| COc1cc(NC(=O)c2cnc3ccccc3c2)c(C(=O)Nc2ccc(N3CCN(Cc4ccc5c(cnn5C)c4)CC3)cc2)cc1OC | 6 | 1880 nM | 19 nM | 6240 nM | – | – | – | – | – | – | – | – | – |
| COc1cc(NC(=O)c2cc(=O)c3ccccc3o2)c(C(=O)Nc2ccc(C3CCN(Cc4cccc(-n5cncn5)c4)CC3)cc2)cc1OC | 0 | 298 nM | 221 nM | 1330 nM | – | – | – | – | – | – | – | – | – |
| COc1cc(NC(=O)c2cnc3ccccc3c2)c(C(=O)Nc2ccc(C3CCN(Cc4cccc(-n5ccnc5)c4)CC3)cc2)cc1OC | 1 | 334 nM | 45 nM | 1240 nM | 61 | Not Determined(Insoluble) | 0.55 | 72 | 0.4 | 0.7 | – | – | – |
| COc1cc(NC(=O)c2cc(=O)c3ccccc3o2)c(C(=O)Nc2ccc(N3CCN(Cc4cccc(-c5ccncc5)c4)CC3)cc2)cc1OC | 0 | 449 nM | 121 nM | 1640 nM | – | – | – | – | – | – | – | – | – |
| COc1cc(NC(=O)c2cnc3ccccc3c2)c(C(=O)Nc2ccc(C3CCN(Cc4ccc5c(cnn5C)c4)CC3)cc2)cc1OC | 3 | 3820 nM | 26 nM | 9000 nM | – | – | – | – | – | – | – | – | – |
| COc1cc(NC(=O)c2cc(=O)c3ccccc3o2)c(C(=O)Nc2ccc(C3CCN(Cc4ccc5c(c4)OCO5)CC3)cc2)cc1OC | 1 | 1240 nM | 51 nM | 6450 nM | – | – | – | – | – | – | – | – | – |
| COc1ccc(CN2CCC(c3ccc(NC(=O)c4cc(OC)c(OC)cc4NC(=O)c4cnc5ccccc5c4)cc3)CC2)cc1OC | 3 | > 9000 nM | 43 nM | – | – | – | – | – | – | – | – | – | – |
| COc1cc(NC(=O)c2cc(=O)c3ccccc3o2)c(C(=O)Nc2ccc(C3CCN(Cc4cccc(-c5cccnc5)c4)CC3)cc2)cc1OC | 0 | 230 nM and 255 nM | 65 nM and 232 nM | 1180 nM and 492 nM | – | – | – | – | – | – | – | – | – |
| COc1cc(NC(=O)c2cnc3ccccc3c2)c(C(=O)Nc2ccc(N3CCN(Cc4cccc(-c5cccnc5)c4)CC3)cc2)cc1OC | 0 | 283 nM | 55 nM | 1090 nM | 51 | Not Determined(Insoluble) | 1.29 | 60 | 2.36 | 1.8 | – | – | – |
| COc1ccc(CN2CCC(c3ccc(NC(=O)c4cc(OC)c(OC)cc4NC(=O)c4cc(=O)c5ccccc5o4)cc3)CC2)cc1OC | 0 | > 9000 nM | 40 nM | – | – | – | – | – | – | – | – | – | – |
| COc1cc(NC(=O)c2cnc3ccccc3c2)c(C(=O)Nc2ccc(C3CCN(Cc4cccc(-c5cccnc5)c4)CC3)cc2)cc1OC | 0 | 245 nM | 108 nM | 967 nM | – | – | – | – | – | – | – | – | – |
| COc1cc(NC(=O)c2cnc3ccccc3c2)c(C(=O)Nc2ccc(C3CCN(Cc4cccc(-c5ccncc5)c4)CC3)cc2)cc1OC | 3 | 1120 nM | 188 nM | 3210 nM | – | – | – | – | – | – | – | – | – |
| COc1cc(NC(=O)c2cnc3ccccc3c2)c(C(=O)Nc2ccc(N3CCN(Cc4cccc(-n5cncn5)c4)CC3)cc2)cc1OC | 1 | 245 nM | 354 nM | 551 nM | – | – | – | – | – | – | – | – | – |
| COc1cc(NC(=O)c2cnc3ccccc3c2)c(C(=O)Nc2ccc(N3CCN(Cc4cccc(-c5ccncc5)c4)CC3)cc2)cc1OC | 2 | 540 nM | 98 nM | 1770 nM | – | – | – | – | – | – | – | – | – |

| Structure (SMILES) | Activity (MES-SA/Dx5) [%] | IC50 (Cytochrome P450 3A4 [1]) | EC50 [2] | IC50 (Cytochrome P450 3A4 [3]) | recovery [4] [%] | solubility [5] | Papp A→B [6] [×10⁻⁶ cm/s] | recovery [7] [%] | Papp B→A [8] [×10⁻⁶ cm/s] | efflux ratio [9] | solubility thermodynamic ([5]; PBS) [µM] | Papp [8] | Ratio [9] |
| --- | --- | --- | --- | --- | --- | --- | --- | --- | --- | --- | --- | --- | --- |
| COc1cc(NC(=O)c2cnc3ccccc3c2)c(C(=O)Nc2ccc(N3CCN(Cc4cccc(-n5ccnc5)c4)CC3)cc2)cc1OC | 0 | 267 nM | 33 nM | 1890 nM | 69 | – | 0.17 | 74 | 0.27 | 1.6 | 0.092 (≈ 0.0614 µg/mL) | – | – |
| COc1cc(NC(=O)c2cnc3ccccc3c2)c(C(=O)Nc2ccc(C3CCN(Cc4cccc(-n5cncn5)c4)CC3)cc2)cc1OC | 1 | 654 nM | 156 nM | 1760 nM | – | – | – | – | – | – | – | – | – |
| COc1ccc(CN2CCN(c3ccc(NC(=O)c4cc(OC)c(OC)cc4NC(=O)c4cc(=O)c5ccccc5o4)cc3)CC2)cc1OC | 5 | > 9000 nM | 21 nM | – | – | – | – | – | – | – | – | – | – |
| COc1cc(NC(=O)c2cc(=O)c3ccccc3o2)c(C(=O)Nc2ccc(N3CCN(Cc4ccc5c(cnn5C)c4)CC3)cc2)cc1OC | 2 | 1060 nM | 14 nM | 8120 nM | – | – | – | – | – | – | – | – | – |
| COc1cc(NC(=O)c2cc(=O)c3ccccc3o2)c(C(=O)Nc2ccc(C3CCN(Cc4ccc5c(cnn5C)c4)CC3)cc2)cc1OC | 1 | 1180 nM | 30 nM | 5970 nM | – | – | – | – | – | – | – | – | – |
| COc1cc(NC(=O)c2cnc3ccccc3c2)c(C(=O)Nc2ccc(N3CCN(Cc4ccc5c(c4)OCO5)CC3)cc2)cc1OC | 3 | 2110 nM | 22 nM | 5530 nM | 75 | – | – | 75 | – | – | – | 31.7 10^-6 cm/s | 14 |
| COc1ccc(CN2CCN(c3ccc(NC(=O)c4ccccc4NC(=O)c4cc(=O)c5ccccc5o4)cc3)CC2)cc1OC | 0 | > 9000 nM | 422 nM | – | – | – | – | – | – | – | – | – | – |
| O=C(Nc1ccccc1C(=O)Nc1ccc(N2CCN(Cc3cccc(-c4cccnc4)c3)CC2)cc1)c1cc(=O)c2ccccc2o1 | 2 | 399 nM | 512 nM | 1860 nM | – | – | – | – | – | – | – | – | – |
| COc1cc(NC(=O)c2cc(=O)c3ccccc3o2)c(C(=O)Nc2ccc(C3CCN(Cc4cccc(-c5ccncc5)c4)CC3)cc2)cc1OC | 1 | 153 nM and 216 nM | 167 nM and 212 nM | 1250 nM and 1160 nM | – | – | – | – | – | – | – | – | – |
| COc1cc(NC(=O)c2cc(=O)c3ccccc3o2)c(C(=O)Nc2ccc(N3CCN(Cc4cccc(-c5cccnc5)c4)CC3)cc2)cc1OC | 0 | 339 nM | 43 nM | 609 nM | 62 | Not Determined(Insoluble) | 0.06 | 86 | < 0.08 | – | – | – | – |
| COc1cc(NC(=O)c2cnc3ccccc3c2)c(C(=O)Nc2ccc(C3CCN(Cc4ccc5c(c4)OCO5)CC3)cc2)cc1OC | 1 | 3210 nM | 39 nM | 9000 nM | – | – | – | – | – | – | – | – | – |
| COc1cc(NC(=O)c2cc(=O)c3ccccc3o2)c(C(=O)Nc2ccc(N3CCN(Cc4cccc(-n5cncn5)c4)CC3)cc2)cc1OC | 1 | 372 nM | 328 nM | 475 nM | – | – | – | – | – | – | – | – | – |
| COc1cc(NC(=O)c2cc(=O)c3ccccc3o2)c(C(=O)Nc2ccc(N3CCN(Cc4ccc5c(c4)OCO5)CC3)cc2)cc1OC | 4 | 1640 nM | 31 nM | 4660 nM | – | – | – | – | – | – | – | – | – |
| C[C@H]1O[C@@H](O[C@H]2[C@@H](O)C[C@H](O[C@H]3[C@@H](O)C[C@H](O[C@H]4CC[C@@]5(C)[C@H](CC[C@@H]6[C@@H]5C[C@@H](O)[C@]5(C)[C@@H](C7=CC(=O)OC7)CC[C@]65O)C4)O[C@@H]3C)O[C@@H]2C)C[C@H](O)[C@@H]1O [DIGOXIN] | – | – | – | – | 56 | – | 0.98 | 68 | 12.1 | 12.2 | – | – | – |
| CC(=O)N1CCN(c2ccc(OCC3COC(Cn4ccnc4)(c4ccc(Cl)cc4Cl)O3)cc2)CC1 (centres undefined) [KETOCONAZOLE] | 39 | – | – | – | – | – | – | – | – | – | – | – | – |
